In a melting point compilation (Tetko et al.; mined from patent text by program, amines drawn as free bases though some values may be those of a salt):

Compared with CCCOc1ccc(C)c2c(=O)c(-c3ccc(OC)cc3)c[nH]c12, COc1ccc(CN(C)C(=O)c2c(-c3ccncc3)c(-c3ccc(F)cc3)nn2C)cc1 is lower in melting point: 192 to 193 °C for the first, 150 to 153 °C for the second.

First: COc1ccc2c(c1[N+](=O)[O-])CN(S(C)(=O)=O)CC(=O)N2
Second: COc1cc(NS(C)(=O)=O)ccc1C1=NC2=CCC(=O)NC2=N1
The melting point of the first is lower: 222 to 226 °C for the first, greater than 255 °C for the second.

First: N#Cc1c(N2CCCCC2)cc(-c2cccs2)c2c1C(=O)c1ccccc1-2
Second: O=C(Nc1cc(Cl)ccc1N1CCCCC1)c1ccncc1
The melting point of the first is higher: 226 to 228 °C for the first, 141 to 143 °C for the second.

First: CS(=O)(=O)OCCN(CCOS(C)(=O)=O)c1ccc([N+](=O)[O-])c(C(=O)O)c1[N+](=O)[O-]
Second: CCc1cccc(CC(=O)O)c1OCCCc1cn(-c2ncc(Cl)cc2Cl)nc1C(C)C
The melting point of the first is higher: 200 to 210 °C for the first, 93 to 95 °C for the second.

First: O=C1CC2c3ccccc3CCN2C2CCCCC12 (centres undefined)
Second: O=c1c2c(n(-c3cccc(Cl)c3)c3ncccc13)CCCC2
The melting point of the first is lower: 112 to 140 °C for the first, 195 to 198 °C for the second.

First: C#Cc1ccc(C(=O)OCC)cn1
Second: CCOC(=O)c1cccc(-c2ccc(Cl)c3cc(CBr)sc23)c1
The melting point of the first is lower: 35 °C for the first, 143 to 144 °C for the second.

First: C[C@H](NC(=O)c1c[nH]c2ncc(-c3ccc(C(=O)NC4CCOCC4)s3)nc12)C(C)(C)C
Second: Cn1c(C2CC2)nc2cc(C(=O)NC3CC3)c(NC(=O)c3cc(C(F)(F)F)nn3-c3ncccc3Cl)c(Cl)c21
The melting point of the first is higher: 333 to 334 °C for the first, 233 to 235 °C for the second.

Compared with COc1ccc(CCNC(=O)[C@@H](O)CO)cc1OC1CCCC1, COc1ccc(C(=O)CC(=O)OC(C)(C)C)c(O)c1 is lower in melting point: 54 to 55 °C for the first, 40 to 42 °C for the second.

Compared with Cc1n[nH]c(C)c1Cc1cc(Cl)cc(Cl)c1, Cc1nc(-c2ccc(O)cc2)[nH]c1Cl is higher in melting point: 133 to 134 °C for the first, 226 to 228 °C for the second.

First: O=C(NCc1ccc(Cl)cc1)c1cn(CCCc2ccccc2)c2sc(CN3CCOCC3)cc2c1=O
Second: N#Cc1ccc(Cn2c(=O)c(C#N)c(N3CCN(C(=O)c4cccs4)CC3)c3cccnc32)cc1
The melting point of the first is lower: 169 to 171 °C for the first, 241 °C for the second.

Compared with O=C(Nc1ccc(Cl)cn1)c1ccccc1O, O=C(NC(=O)C(F)(F)F)c1ccccc1-c1noc(-c2ccccc2F)n1 is lower in melting point: 206 to 207 °C for the first, 119 to 120 °C for the second.

First: CCCCC(=O)NC(C(=O)OCC)=C(N)SCC
Second: CCOC(=O)C1C2CCC(=O)C21 (centres undefined)
The melting point of the first is higher: 110 °C for the first, 36 to 38 °C for the second.

First: Nc1ccc(N2CCN(CCCN3c4cccc5cccc(c45)S3(=O)=O)CC2)cc1
Second: CCOC(=O)C(C)(C)NC(=O)c1nnc2ccc(NCCCN3CCC(OC(c4ccccc4)c4ccccc4)CC3)nn12
The melting point of the first is lower: 113 °C for the first, 165 to 167 °C for the second.

Compared with CN1CCN(C(=O)c2ccc(N)cc2N)CC1, Cc1cc(C)n(-c2nc(-c3ccc(Cl)cc3)c(CCC(=O)N3CCN(CC4CCN(C)CC4)CC3)o2)n1 is lower in melting point: 192 °C for the first, 126 to 127 °C for the second.

First: N#Cc1nc(-c2cnn(-c3c(Cl)cc(C(F)(F)F)cc3Cl)c2Br)[nH]c1C#N
Second: Cc1nc2cc(C(F)(F)F)ccc2n1NC(=O)c1ccc(Cl)c(S(N)(=O)=O)c1
The melting point of the first is lower: 167 to 170 °C for the first, 193 to 195 °C for the second.

Compared with CC(C)(O)c1nnc(-c2ccc3occ(-c4cc(F)ccc4F)c3c2)o1, COCCNc1ccc2ncnc(Nc3ccc(F)c(Cl)c3)c2c1 is lower in melting point: 155 to 156 °C for the first, 152 to 154 °C for the second.

Compared with CCOC(=O)c1cn(C2CC2)c2nc(Sc3ccc(C)cc3)c(F)cc2c1=O, CCOC(=O)Cc1c(C)n(Cc2ccc(SC)cc2)c2ccc(OCc3nc4ccccc4s3)cc12 is lower in melting point: 186 to 187 °C for the first, 101 to 102 °C for the second.

First: O=c1[nH]c2ccc(Cl)cc2c(=O)n1S(=O)(=O)c1ccc(Cl)cc1
Second: COc1ccc([C@H]2Cc3c(cccc3[N+](=O)[O-])NC(=O)[C@H]2O)cc1 (relative stereo)
The melting point of the first is higher: 223 to 225 °C for the first, 198 to 200 °C for the second.

First: Cc1ccc2ccccc2c1NC1COC(=O)C1 (centres undefined)
Second: Cc1c(-c2ccccc2)oc2c(NC(=O)NCCCl)cccc2c1=O
The melting point of the first is lower: 92 to 94 °C for the first, 213 to 214 °C for the second.

First: COCCCNc1nc2cc(Cl)c(Cl)cc2nc1-c1ccccn1
Second: CCCCCCCCCCCCCCCCn1c(-c2ccc(Cl)c(N)c2)nnc1-c1ccc(Cl)c(N)c1
The melting point of the first is higher: 99.5 to 100 °C for the first, 88 to 90 °C for the second.

Compared with CC(C)(C)OC(=O)Nc1cc(C(=O)NN)ccn1, COC(=O)c1cc(C#Cc2cnc3nc(NC(=O)C(C)(C)C)nc(O)c3c2)cn1[Si](C(C)C)(C(C)C)C(C)C is lower in melting point: 289 to 290 °C for the first, 163 to 165 °C for the second.

First: COc1ccc2c(c1)CCC1CCN(C)C(=O)C(CC3(C)OCCO3)=C21 (centres undefined)
Second: Cc1cc2c(cc1C)C1(CO2)C(=O)N(CC2CCOCC2)c2ccccc21 (centres undefined)
The melting point of the first is lower: 112 to 115 °C for the first, 199 to 201 °C for the second.

First: Cc1nc(N)sc1S(=O)(=O)NCCO
Second: CCOC(=O)c1c(N)c(Br)cc2c1OCO2
The melting point of the first is higher: 151 °C for the first, 81 to 83 °C for the second.

First: Cc1cnc(CNC(=O)c2c(-c3ccccc3)c(-c3ccc(F)cc3)c(/C=C\[C@@H](O)C[C@@H](O)CC(=O)OC(C)(C)C)n2C(C)C)cn1
Second: O=C1NC(=O)C(=Cc2ccc([N+](=O)[O-])cc2)S1
The melting point of the first is lower: 168 to 170 °C for the first, 272 to 273 °C for the second.

Compound Cn1c(=N)sc2cc(OC(F)(F)F)ccc21 has a melting point of 60 to 62 °C.
